Columns and labels:
TNKS2 = molecular target: T1, TNKS2 (Homo sapiens, UniProt Q9H2K2); experiment: TNKS2 Assay B (auto-parsylation, [3H]-NAD+ SPA); assay type: biochemical; details: 6 nM TNKS2, auto-parsylation, over night at room temperature
T1 construct: purchased BPS Bioscience, San Diego, USA 80572 (TNKS2 Histone Ribosylation Assay Kit)
T1 sequence (Q9H2K2 1-1166): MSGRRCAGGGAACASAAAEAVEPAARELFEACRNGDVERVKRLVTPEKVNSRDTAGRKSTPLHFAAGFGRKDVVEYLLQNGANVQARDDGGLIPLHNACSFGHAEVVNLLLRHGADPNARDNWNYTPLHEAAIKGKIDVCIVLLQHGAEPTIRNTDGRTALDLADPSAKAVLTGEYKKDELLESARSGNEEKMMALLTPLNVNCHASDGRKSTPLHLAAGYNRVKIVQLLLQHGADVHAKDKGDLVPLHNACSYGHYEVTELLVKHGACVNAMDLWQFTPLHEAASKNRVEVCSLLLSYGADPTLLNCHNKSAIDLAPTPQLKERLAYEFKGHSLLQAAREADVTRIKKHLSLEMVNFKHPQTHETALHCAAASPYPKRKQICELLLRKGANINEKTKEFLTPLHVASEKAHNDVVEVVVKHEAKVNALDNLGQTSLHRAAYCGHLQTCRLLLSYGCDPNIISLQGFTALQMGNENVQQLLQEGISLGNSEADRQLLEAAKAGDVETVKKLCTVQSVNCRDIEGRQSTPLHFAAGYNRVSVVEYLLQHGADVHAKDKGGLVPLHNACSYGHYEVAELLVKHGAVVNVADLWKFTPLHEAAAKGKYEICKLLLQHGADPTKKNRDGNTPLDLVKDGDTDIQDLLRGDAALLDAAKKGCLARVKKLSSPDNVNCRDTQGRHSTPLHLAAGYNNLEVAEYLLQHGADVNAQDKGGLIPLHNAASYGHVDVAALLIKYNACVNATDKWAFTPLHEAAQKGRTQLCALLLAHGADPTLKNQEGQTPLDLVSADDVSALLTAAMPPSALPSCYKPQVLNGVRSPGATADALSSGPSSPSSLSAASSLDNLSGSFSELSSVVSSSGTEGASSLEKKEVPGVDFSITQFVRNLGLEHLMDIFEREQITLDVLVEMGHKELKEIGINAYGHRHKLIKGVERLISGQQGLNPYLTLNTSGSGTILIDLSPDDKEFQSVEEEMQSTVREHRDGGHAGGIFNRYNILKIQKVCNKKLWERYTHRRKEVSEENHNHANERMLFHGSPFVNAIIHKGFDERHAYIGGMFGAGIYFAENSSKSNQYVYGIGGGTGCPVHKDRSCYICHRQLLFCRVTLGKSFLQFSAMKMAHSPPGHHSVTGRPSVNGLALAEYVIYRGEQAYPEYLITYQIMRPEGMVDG

[1] = tested on: wildtype Wnt signaling cascade; experiment: HEK293 TOP assay (Super TopFlash luciferase reporter, Wnt-3a stimulated); assay type: cell-based; details: Homo sapiens, HEK293, 16 h, HEK293 TOP reporter cells, Wnt3a at EC50, 16 hours
Method in brief: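 HEK293 cells stably carrying Super TopFlash (TOP) run in parallel with FOP cells, 10000/well plated 24 h ahead, stimulated with recombinant human Wnt-3a. Compounds tested 50 μM to 15 nM in 3.16-fold steps in CAFTY buffer pH 7.4 with 2 mM Ca^2+ and 0.01% BSA; luciferase read-out.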

[2] = tested on: HEK293 cells cotransfected with the FOP control vector; experiment: HEK293 FOP assay (control reporter with non-functional TCF elements); assay type: cell-based; details: Homo sapiens, 16 hours
Method in brief: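 Stable HEK293 line carrying FOP control reporter (randomized non-functional TCF sites, with pcDNA3), Geneticin-selected, plated 24 h before assay. Stimulated with recombinant human Wnt-3a (2500-5 ng/ml) and compounds 50 μM–15 nM (3.16-fold steps) in CAFTY buffer pH 7.4 with 2 mM Ca2+, 0.01% BSA, run parallel to TOP line.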

SMILES	IC50 (TNKS2) [nM]	IC50 [1] [nM]	IC50 [2] [nM]
CNC(=O)c1[nH]cnc1C(=O)N[C@@H]1CC[C@@H](C(=O)Nc2ccc(F)cc2Cl)C[C@@H]1F (racemic) [Example 31, N^4-{(1α,2α,4β)-4-[(2-chloro-4-fluorophenyl)carbamoyl]-2-fluorocyclohexyl}-N^5-methyl-1H-imidazole-4,5-dicarboxamide]	120	250	≥ 50000
CNC(=O)c1[nH]cnc1C(=O)N[C@@H]1CC[C@@H](C(=O)Nc2ccc(F)cc2Cl)C[C@H]1OC (racemic) [Example 35, N^4-{(1α,2β,4β)-4-[(2-chloro-4-fluorophenyl)carbamoyl]-2-methoxycyclohexyl}-N^5-methyl-1H-imidazole-4,5-dicarboxamide]	> 10000	17000	≥ 50000
CNC(=O)c1[nH]cnc1C(=O)N[C@H]1CC[C@H](C(=O)Nc2ccc(F)cc2Cl)CC1(F)F (single isomer, unassigned) [Example 33, N^4-{(trans)-4-[(2-chloro-4-fluorophenyl)carbamoyl]-2,2-difluorocyclohexyl}-N^5-methyl-1H-imidazole-4,5-dicarboxamide]	380	700	≥ 50000
CNC(=O)c1[nH]cnc1C(=O)NC1CCC(C(=O)Nc2ccc(F)cc2Cl)CC1C (single isomer, unassigned) [Example 41, N^4-{4-[(2-chloro-4-fluorophenyl)carbamoyl]-2-methylcyclohexyl}-N^5-methyl-1H-imidazole-4,5-dicarboxamide]	> 10000	21000	≥ 50000
O=C(NC1CCC(F)(C(=O)Nc2ccc(F)cc2Cl)CC1)c1cnn2cccnc12 (single isomer, unassigned) [Example 365, N-{4-[(2-chloro-4-fluorophenyl)carbamoyl]-4-fluorocyclohexyl}pyrazolo[1,5-a]pyrimidine-3-carboxamide (single isomer)]	> 10000	21000	35000
CNC(=O)c1[nH]cnc1C(=O)NC1CCC(F)(C(=O)Nc2ccc(F)cc2Cl)CC1 (single isomer, unassigned) [Example 366, N^4-{4-[(2-chloro-4-fluorophenyl)carbamoyl]-4-fluorocyclohexyl}-N^5-methyl-1H-imidazole-4,5-dicarboxamide (single isomer)]	> 10000	25000	≥ 50000
O=C(NCC1CCCO1)c1nc[nH]c1C(=O)N[C@H]1CC[C@H](C(=O)Nc2c(F)cc(F)cc2Cl)CC1 (stereo in doubt) [Example 71, N^5-{trans-4-[(2-chloro-4,6-difluorophenyl)carbamoyl]cyclohexyl}-N^4-[(2R)-tetrahydrofuran-2-ylmethyl]-1H-imidazole-4,5-dicarboxamide]	66	100	23000
O=C(N[C@H]1CC[C@H](C(=O)Nc2ccc(F)cc2Cl)CC1)c1[nH]cnc1C(=O)N1CCC1 [Example 23, 4-(azetidin-1-ylcarbonyl)-N-{trans-4-[(2-chloro-4-fluorophenyl)carbamoyl]cyclohexyl}-1H-imidazole-5-carboxamide]	25	110	≥ 50000
CN(C)C1CN(C(=O)c2nc[nH]c2C(=O)N[C@H]2CC[C@H](C(=O)Nc3ccc(F)cc3Cl)CC2)C1 [Example 26, N-{trans-4-[(2-chloro-4-fluorophenyl)carbamoyl]cyclohexyl}-4-{[3-(dimethylamino)azetidin-1-yl]carbonyl}-1H-imidazole-5-carboxamide]	80	140	≥ 50000
CNC(=O)c1nc[nH]c1C(=O)N[C@H]1CC[C@H](C(=O)Nc2c(F)cc(F)cc2Br)CC1 [Example 28, N^5-{trans-4-[(6-bromo-2,4-difluorophenyl)carbamoyl]cyclohexyl}-N^4-methyl-1H-imidazole-4,5-dicarboxamide]	26	24	≥ 50000
Cc1cc(C)n2ncc(C(=O)NC3CCC(C(=O)Nc4ccc(F)cc4Cl)CC3C)c2n1 (stereo not drawn) [Example 42, N-{4-[(2-chloro-4-fluorophenyl)carbamoyl]-2-methylcyclohexyl}-5,7-dimethylpyrazolo[1,5-a]pyrimidine-3-carboxamide]	120	120	≥ 50000
O=C(N[C@H]1CC[C@H](C(=O)Nc2ccc(F)cc2Cl)CC1)c1cnn2cccnc12 [Example 43, N-{trans-4-[(2-chloro-4-fluorophenyl)carbamoyl]cyclohexyl}pyrazolo[1,5-a]pyrimidine-3-carboxamide]	74	130	≥ 50000

Continued, in another order:

IC50 (TNKS2) [nM]	IC50 [1] [nM]	SMILES	IC50 [2] [nM]
280	270	CNC(=O)c1[nH]cnc1C(=O)N[C@@H]1CC[C@@H](C(=O)Nc2ccc(F)cc2Cl)CC1(F)F (stereo in doubt) [Example 32, N^4-{(trans)-4-[(2-chloro-4-fluorophenyl)carbamoyl]-2,2-difluorocyclohexyl}-N^5-methyl-1H-imidazole-4,5-dicarboxamide]	≥ 50000
72	52	CNC(=O)c1nc[nH]c1C(=O)N[C@H]1CC[C@H](C(=O)Nc2ccc(F)cc2Cl)CC1 [Example 1, N^5-{trans-4-[(2-chloro-4-fluorophenyl)carbamoyl]cyclohexyl}-N^4-methyl-1H-imidazole-4,5-dicarboxamide]	≥ 50000
5.3	24	O=C(N[C@H]1CC[C@H](C(=O)Nc2ccc(F)cc2Cl)CC1)c1[nH]cnc1C(=O)N1CC2(CCS2(=O)=O)C1 [Example 22, N-{trans-4-[(2-chloro-4-fluorophenyl)carbamoyl]cyclohexyl}-4-[(1,1-dioxido-1-thia-6-azaspiro[3.3]hept-6-yl)carbonyl]-1H-imidazole-5-carboxamide]	≥ 50000
17	86	COC1CN(C(=O)c2nc[nH]c2C(=O)N[C@H]2CC[C@H](C(=O)Nc3ccc(F)cc3Cl)CC2)C1 [Example 24, 4 N-{trans-4-[(2-chloro-4-fluorophenyl)carbamoyl]cyclohexyl}-4-[(3-methoxyazetidin-1-yl)carbonyl]-1H-imidazole-5-carboxamide]	≥ 50000
11	63	O=C(NCCN1CC2(CCO2)C1)c1nc[nH]c1C(=O)N[C@H]1CC[C@H](C(=O)Nc2ccc(F)cc2Cl)CC1 [Example 25, N^5-{trans-4-[(2-chloro-4-fluorophenyl)carbamoyl]cyclohexyl}-N^4-[2-(1-oxa-6-azaspiro[3.3]hept-6-yl)ethyl]-1H-imidazole-4,5-dicarboxamide]	≥ 50000
19	35	CNC(=O)c1nc[nH]c1C(=O)N[C@H]1CC[C@H](C(=O)Nc2c(Br)cc(F)c(F)c2F)CC1 [Example 27, N^5-{trans-4-[(6-bromo-2,3,4-trifluorophenyl)carbamoyl]cyclohexyl}-N^4-methyl-1H-imidazole-4,5-dicarboxamide]	≥ 50000
590	930	CNC(=O)c1ncoc1C(=O)N[C@H]1CC[C@H](C(=O)Nc2ccc(F)cc2Cl)CC1 [Example 29, N^5-{trans-4-[(2-chloro-4-fluorophenyl)carbamoyl]cyclohexyl}-N^4-methyl-1,3-oxazole-4,5-dicarboxamide]	≥ 50000
> 10000	44000	CNC(=O)c1ocnc1C(=O)N[C@H]1CC[C@H](C(=O)Nc2ccc(F)cc2Cl)CC1 [Example 30]	40000

Source: patent US20180148418A1, “AMIDO-SUBSTITUTED CYCLOHEXANE DERIVATIVES” (Bayer Pharma Aktiengesellschaft, priority 2015, published 2018)
